Measured values: patent US20050208496A1, “Methods of testing for bronchial asthma or chronic obstructive pulmonary disease” (Genox Research, Inc., priority 2002, published 2005)
Where two headings read alike, the source gives them in different places.

Tested on: respiratory epithelial cells

IL-13: human IL-13 (Peprotech, Inc.) added to the medium at 50 ng/mL to stimulate respiratory epithelial cells
PR01489 57777_at expression change (lot 1 Day 3 AI): −2.1 | PSCA (63958_at) expression change (lot 1 Day 3 AI): −9.8 | RAC2 32737_at expression change (lot 1 Day 3 AI): −4.3 | RGC32 (57044_s_at) expression change (lot 1 Day 3 AI): −2.7 | SCYB14 (65823_at) expression change (lot 1 Day 3 AI): −4.1 | SEMA4B (46709_at) expression change (lot 1 Day 3 AI): −2.8 | SERPINA3 (75248_at) expression change (lot 1 Day 3 AI): −4.8 | SLC34A2 (48048_at) expression change (lot 1 Day 3 AI): −2.8 | STEAP 40297_at expression change (lot 1 Day 3 AI): −2.2 | TCF8 33439_at expression change (lot 1 Day 3 AI): −2.5 | TGFBI (68339_at) expression change (lot 1 Day 3 AI): −2.9 | TNRC3 41246_at expression change (lot 1 Day 3 AI): −2.9 | TPM1 36790_at expression change (lot 1 Day 3 AI): −2.9 | TPM1 36791_g_at expression change (lot 1 Day 3 AI): −2.5 | TPM1 36792_at expression change (lot 1 Day 3 AI): −2.6 | UGB 39220_at expression change (lot 1 Day 3 AI): −6 | VIM 34091_s_at expression change (lot 1 Day 3 AI): −3.4 | W72331 49486 at expression change (lot 1 Day 3 AI): −8 | AA045020 (44676_at) expression change (lot 1 Day 3 IMM): −3.4 | AA059445 46293_at expression change (lot 1 Day 3 IMM): −3.9 | AA059458 (65626_at) expression change (lot 1 Day 3 IMM): −4.5 | AA456099 (59567_at) expression change (lot 1 Day 3 IMM): −2 | AI050855 (64285_at) expression change (lot 1 Day 3 IMM): −2.6 | AI468340 (72604_at) expression change (lot 1 Day 3 IMM): −2.2 | AI984780 (52384_s_at) expression change (lot 1 Day 3 IMM): −2.8 | AQP5 32909_at expression change (lot 1 Day 3 IMM): −3.1 | AW025596 52637_g_at expression change (lot 1 Day 3 IMM): −3.1 | COL12A1 (44730_at) expression change (lot 1 Day 3 IMM): −2.9 | DSC3a, b 47119_at expression change (lot 1 Day 3 IMM): −2.6 | HIN-1 (46200_at) expression change (lot 1 Day 3 IMM): −3.1 | IVL 36355_at expression change (lot 1 Day 3 IMM): −8.4 | KIAA1376 (62972_at) expression change (lot 1 Day 3 IMM): −2.5 | KLF7 34216_at expression change (lot 1 Day 3 IMM): −3.3 | KRT6B (62998_at) expression change (lot 1 Day 3 IMM): −3.5 | LCE 45605_at expression change (lot 1 Day 3 IMM): −2.1 | LOC51297 (49616_at) expression change (lot 1 Day 3 IMM): −4 | LOC51297 (55440_at) expression change (lot 1 Day 3 IMM): −10.5 | LOC51297 (55442_g_at) expression change (lot 1 Day 3 IMM): −4.9 | LOC55893 (64071_at) expression change (lot 1 Day 3 IMM): −2 | LOC129642 (42065_at) expression change (lot 1 Day 3 IMM): −2 | MGC12536 46924_at expression change (lot 1 Day 3 IMM): −2.1 | MGC14128 (51669_r_at) expression change (lot 1 Day 3 IMM): −2.2 | MGC14597 (46030_at) expression change (lot 1 Day 3 IMM): −3.1 | MGC16207 (65876_at) expression change (lot 1 Day 3 IMM): −4.5 | N71183 52473_at expression change (lot 1 Day 3 IMM): −2.4 | PR01489 57777_at expression change (lot 1 Day 3 IMM): −3.4 | RAC2 32737_at expression change (lot 1 Day 3 IMM): −3.5 | SLC11A3 (45826_at) expression change (lot 1 Day 3 IMM): −2.3 | STEAP 40297_at expression change (lot 1 Day 3 IMM): −2.3 | TCF8 33439_at expression change (lot 1 Day 3 IMM): −2.7 | TPM1 36791_g_at expression change (lot 1 Day 3 IMM): −2.2 | UCP2 37591_at expression change (lot 1 Day 3 IMM): −2.3 | UGB 39220_at expression change (lot 1 Day 3 IMM): −4 | VIM 34091_s_at expression change (lot 1 Day 3 IMM): −3.2 | W72331 49486 at expression change (lot 1 Day 3 IMM): −3.2 | AA045020 (44676_at) expression change (lot 2, Day 3, AI): −5.7 | AA059445 46293_at expression change (lot 2, Day 3, AI): −4.5 | AA059458 (65626_at) expression change (lot 2, Day 3, AI): −5.8 | AA079839 (69289_at) expression change (lot 2, Day 3, AI): −2 | AA160156 (47578_at) expression change (lot 2, Day 3, AI): −2.3 | AA369887 (87539_i_at) expression change (lot 2, Day 3, AI): −3.4 | AA456099 (59567_at) expression change (lot 2, Day 3, AI): −2.1 | AA772055 46104_at expression change (lot 2, Day 3, AI): −2.7 | AA779895 59136_at expression change (lot 2, Day 3, AI): −3.2 | AF052107 38262_at expression change (lot 2, Day 3, AI): −3.8 | AI050855 (64285_at) expression change (lot 2, Day 3, AI): −2.9 | AI264299 (84903_f_at) expression change (lot 2, Day 3, AI): −10.4 | AI432375 (49819_at) expression change (lot 2, Day 3, AI): −2.6 | AI468340 (72604_at) expression change (lot 2, Day 3, AI): −2.4 | AI669212 55436_at expression change (lot 2, Day 3, AI): −3.7 | AI740855 (83076_at) expression change (lot 2, Day 3, AI): −2.7 | AI760772 (58528_s_at) expression change (lot 2, Day 3, AI): −2 | AI770116 (70124_at) expression change (lot 2, Day 3, AI): −2.6 | AI798733 (64163_at) expression change (lot 2, Day 3, AI): −2.3 | AI829641 (84270_at) expression change (lot 2, Day 3, AI): −24.1 | AI917602 (49985_at) expression change (lot 2, Day 3, AI): −2.4 | AI948584 48086_at expression change (lot 2, Day 3, AI): −15.6 | AI984780 (52384_s_at) expression change (lot 2, Day 3, AI): −5.3 | AQP5 32909_at expression change (lot 2, Day 3, AI): −5.1 | AW022213 (79520_at) expression change (lot 2, Day 3, AI): −2.9 | AW025596 52634_at expression change (lot 2, Day 3, AI): −2 | AW025596 52637_g_at expression change (lot 2, Day 3, AI): −7.5 | B4GALT5 56373_at expression change (lot 2, Day 3, AI): −2.2 | BARX2 35425_at expression change (lot 2, Day 3, AI): −2.5 | BPGM (51261_at) expression change (lot 2, Day 3, AI): −2.5 | CBLB 514_at expression change (lot 2, Day 3, AI): −4.6 | CRABP-II 1057_at expression change (lot 2, Day 3, AI): −4.7 | CRABP-II 41783_at expression change (lot 2, Day 3, AI): −5.4 | DHCR24 (74557_s_at) expression change (lot 2, Day 3, AI): −2.1 | DKFZp434K1210 44682_at expression change (lot 2, Day 3, AI): −2.9 | DREV1 (63813_at) expression change (lot 2, Day 3, AI): −2.1 | DSC3a, b 47119_at expression change (lot 2, Day 3, AI): −2.2 | EIF4EBP1 (54152_at) expression change (lot 2, Day 3, AI): −2.3 | FLJ10298 (62490_f_at) expression change (lot 2, Day 3, AI): −3.4 | FLJ10718 52072_at expression change (lot 2, Day 3, AI): −5.5 | FLJ12541 43546_at expression change (lot 2, Day 3, AI): −3.8 | FLJ20048 (49196_at) expression change (lot 2, Day 3, AI): −2.3 | FLJ20373 54030_at expression change (lot 2, Day 3, AI): −2.4 | FLJ23516 47534_at expression change (lot 2, Day 3, AI): −2.6 | GJA1 32531_at expression change (lot 2, Day 3, AI): −6.8 | GSTA3 58023 at expression change (lot 2, Day 3, AI): −5.3 | HEY1 44783_s_at expression change (lot 2, Day 3, AI): −5.4 | HIN-1 (46200_at) expression change (lot 2, Day 3, AI): −28 | HSPC195 44705_at expression change (lot 2, Day 3, AI): −2 | ID1 36619_r_at expression change (lot 2, Day 3, AI): −2.3 | IVL 36355_at expression change (lot 2, Day 3, AI): −3.6 | K1IAA1102 (64345_s_at) expression change (lot 2, Day 3, AI): −3.2
